Key:
[1] = system: HBV replication in HepAD38 cells; experiment: Anti-HBV replication assay in HepAD38 cells (QPCR of extracellular HBV DNA); type: cell-based, HBV (genotype D, serotype ayw); conditions: Hepatitis B virus, 168 h, 7 days incubation, extracellular HBV DNA by QPCR, read-out: Anti-HBV EC50
Outline: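 Read-out is QPCR of HBV DNA released into culture supernatant, converted to percent of vehicle control and fitted to give EC50. Cells were HepAD38 induced by tetracycline removal and dosed […] for 7 days.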

[2] = In vitro cytotoxicity assay (MTT cell viability) in HepG2 cells; type: cell-based, human; conditions: human
Outline: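 Parental HepG2 cells in EMEM + 10% FBS were exposed to compounds (8 half-log dilutions, 30 μM to 1.0 nM) for 7 days at 37 °C, 5% CO2. MTT was then added for 3-4 h, formazan dissolved in DMSO and absorbance read at 492 nm; CC50 came from 4-parameter fits against vehicle controls.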

| SMILES | EC50 [1] | CC50 at 7 days [2] |
| --- | --- | --- |
| Cc1cc(NC(=O)c2c(C)c(C(=O)C(=O)NC3CC[C@@H](O)[C@@H](O)CC3)n(C)c2C)ccc1F (stereo partly drawn) [Example 713, 5-(2-(((4R,5S)-4,5-dihydroxycycloheptyl)amino)-2-oxoacetyl)-N-(4-fluoro-3-methylphenyl)-1,2,4-trimethyl-1H-pyrrole-3-carboxamide] | < 0.05 µM | > 30 µM |
| Cc1cc(NC(=O)c2c(C)c(C(=O)C(=O)NC3COCCOC3)n(C)c2C)ccc1F [Example 714, 5-(2-((1,4-dioxepan-6-yl)amino)-2-oxoacetyl)-N-(4-fluoro-3-methylphenyl)-1,2,4-trimethyl-1H-pyrrole-3-carboxamide] | < 0.05 µM | > 30 µM |
| Cc1cc(NC(=O)c2c(C)c(C(=O)C(=O)NC3(C)CCN(c4cnccn4)CC3)n(C)c2C)ccc1F [Example 715, N-(4-fluoro-3-methylphenyl)-1,2,4-trimethyl-5-(2-((4-methyl-1-(pyrazin-2-yl)piperidin-4-yl)amino)-2-oxoacetyl)-1H-pyrrole-3-carboxamide] | < 0.05 µM | 5 to 30 µM |
| Cc1nc(C(C)(NC(=O)C(=O)c2c(C)c(C(=O)Nc3ccc(F)c(C)c3)c(C)n2C)C2CC2)no1 (stereo not drawn) [Example 716, 5-(2-((1-cyclopropyl-1-(5-methyl-1,2,4-oxadiazol-3-yl)ethyl)amino)-2-oxoacetyl)-N-(4-fluoro-3-methylphenyl)-1,2,4-trimethyl-1H-pyrrole-3-carboxamide] | < 0.05 µM | > 30 µM |
| Cc1cc(NC(=O)c2c(C)c(C(=O)C(=O)NC3(C)CCN(c4ccncn4)CC3)n(C)c2C)ccc1F [Example 717] | < 0.05 µM | 5 to 30 µM |
| Cc1cc(NC(=O)c2c(C)c(C(=O)C(=O)NC(C)(C)COC(F)F)n(C)c2C)ccc1F [Example 718, 5-(2-((1-(difluoromethoxy)-2-methylpropan-2-yl)amino)-2-oxoacetyl)-N-(4-fluoro-3-methylphenyl)-1,2,4-trimethyl-1H-pyrrole-3-carboxamide] | < 0.05 µM | 5 to 30 µM |
| Cc1cc(NC(=O)c2c(C)c(C(=O)C(=O)NC3(C)CCN(C(=O)c4cnn5cccnc45)CC3)n(C)c2C)ccc1F [Example 719, N-(4-fluoro-3-methylphenyl)-1,2,4-trimethyl-5-(2-((4-methyl-1-(pyrazolo[1,5-a]pyrimidine-3-carbonyl)piperidin-4-yl)amino)-2-oxoacetyl)-1H-pyrrole-3-carboxamide] | < 0.05 µM | > 30 µM |
| Cc1c(C(=O)Nc2cccc(C(F)F)c2)c(C)n(C)c1C(=O)C(=O)N[C@]1(C)C[C@@H](O)C1 [Example 720, N-(3-(difluoromethyl)phenyl)-5-(2-(((1r,3r)-3-hydroxy-1-methylcycloutyl)amino)-2-oxoacetyl)-1,2,4-trimethyl-1H-pyrrole-3-carboxamide] | < 0.05 µM | > 30 µM |
| Cc1c(C(=O)Nc2cccc(C(F)F)c2)c(C)n(C)c1C(=O)C(=O)N[C@@H]1CC[C@@H](O)C1 [Example 721, N-(3-(difluoromethyl)phenyl)-5-(2-(((1R,3R)-3-hydroxycyclopentyl)amino)-2-oxoacetyl)-1,2,4-trimethyl-1H-pyrrole-3-carboxamide] | < 0.05 µM | > 30 µM |
| Cc1cc(NC(=O)c2c(C)c(C(=O)C(=O)N[C@@]3(C)CC[C@@H](O)C3)n(C)c2C)ccc1F [Example 722, N-(4-fluoro-3-methylphenyl)-5-(2-(((1S,3R)-3-hydroxy-1-methylcyclopentyl)amino)-2-oxoacetyl)-1,2,4-trimethyl-1H-pyrrole-3-carboxamide] | < 0.05 µM | > 30 µM |
| Cc1cc(NC(=O)c2c(C)c(C(=O)C(=O)N[C@@]3(C)CC[C@H](O)C3)n(C)c2C)ccc1F [Example 723, N-(4-fluoro-3-methylphenyl)-5-(2-(((1 S,3S)-3-hydroxy-1-methylcyclopentyl)amino)-2-oxoacetyl)-1,2,4-trimethyl-1H-pyrrole-3-carboxamide] | < 0.05 µM | > 30 µM |
| Cc1c(C(=O)Nc2ccc(F)cc2)c(C)n(C)c1C(=O)C(=O)N[C@H]1CC[C@@H](O)CC1 [Example 724] | < 0.05 µM | > 30 µM |
| Cc1c(C(=O)Nc2ccc(F)cc2)c(C)n(C)c1C(=O)C(=O)N[C@H](C)C(F)(F)F [Example 725, (R)-N-(4-fluorophenyl)-1,2,4-trimethyl-5-(2-oxo-2-((1,1,1-trifluoropropan-2-yl)amino)acetyl)-1H-pyrrole-3-carboxamide] | < 0.05 µM | > 30 µM |
| Cc1c(C(=O)Nc2cncc(Cl)c2)c(C)n(C)c1C(=O)C(=O)N[C@H]1CC[C@@H](O)CC1 [Example 726, N-(5-chloropyridin-3-yl)-5-(2-(((1s,4s)-4-hydroxycyclohexyl)amino)-2-oxoacetyl)-1,2,4-trimethyl-1H-pyrrole-3-carboxamide] | < 0.05 µM | > 30 µM |
| Cc1c(C(=O)Nc2cncc(Cl)c2)c(C)n(C)c1C(=O)C(=O)N[C@H](C)C(F)(F)F [Example 727, (R)-N-(5-chloropyridin-3-yl)-1,2,,4-trimethyl-5-(2-oxo-2-((1,1,1-trifluoropropan-2-yl)amino)acetyl)-1H-pyrrole-3-carboxamide] | < 0.05 µM | > 30 µM |
| Cc1cc(NC(=O)c2c(C)c(C(=O)C(=O)NC3(C)CCN(c4cccnn4)CC3)n(C)c2C)ccc1F [Example 728, N-(4-fluoro-3-methylphenyl)-1,2,4-trimethyl-5-(2-((4-methyl-1-(pyridazin-3-yl)piperidin-4-yl)amino)-2-oxoacetyl)-1H-pyrrole-3-carboxamide] | < 0.05 µM | > 30 µM |
| CC[C@H](C)NC(=O)C(=O)c1c(Cl)c(C(=O)Nc2cnc(F)c(C)c2)c2n1CCCC2 [Example 729, (S)-3-(2-(sec-butylamino)-2-oxoacetyl)-2-chloro-N-(6-fluoro-5-methylpyridin-3-yl)-5,6,7,8-tetrahydroindolizine-1-carboxamide] | 0.05 to 0.499 µM | > 30 µM |
| Cc1cc(NC(=O)c2c(Cl)c(C(=O)C(=O)NC(C)(C)C(F)(F)F)n3c2CCCC3)cnc1F [Example 730, 2-chloro-N-(6-fluoro-5-methylpyridin-3-yl)-3-(2-oxo-2-((1,1,1-trifluoro-2-methylpropan-2-yl)amino)acetyl)-5,6,7,8-tetrahydroindolizine-1-carboxamide] | 0.05 to 0.499 µM | > 30 µM |
| Cc1cc(NC(=O)c2c(Cl)c(C(=O)C(=O)N[C@@H](C)C(F)(F)F)n3c2CCCC3)cnc1F [Example 731, (S)-2-chloro-N-(6-fluoro-5-methylpyridin-3-yl)-3-(2-oxo-2-((1,1,1-trifluoropropan-2-yl)amino)acetyl)-5,6,7,8-tetrahydroindolizine-1-carboxamide] | < 0.05 µM | 5 to 30 µM |
| Cc1cc(NC(=O)c2c(Cl)c(C(=O)C(=O)N[C@H](C)C(F)(F)F)n3c2CCCC3)cnc1F [Example 732] | 0.05 to 0.499 µM | > 30 µM |
| CC[C@H](C)NC(=O)C(=O)c1c(Cl)c(C(=O)Nc2cnc(F)c(C)c2)c2n1CCC2 [Example 733, (S)-5-(2-(sec-butylamino)-2-oxoacetyl)-6-chloro-N-(6-fluoro-5-methylpyridin-3-yl)-2,3-dihydro-1H-pyrrolizine-7-carboxamide] | < 0.05 µM | 5 to 30 µM |
| Cc1cc(NC(=O)c2c(Cl)c(C(=O)C(=O)NCc3cnc(N)s3)n3c2CCC3)cnc1F [Example 734, 5-(2-(((2-aminothiazol-5-yl)methyl)amino)-2-oxoacetyl)-6-chloro-N-(6-fluoro-5-methylpyridin-3-yl)-2,3-dihydro-1H-pyrrolizine-7-carboxamide] | < 0.05 µM | > 30 µM |
| Cc1noc([C@@H](C)NC(=O)C(=O)c2c(Cl)c(C(=O)Nc3cnc(F)c(C)c3)c3n2CCC3)n1 [Example 735, (R)-6-chloro-N-(6-fluoro-5-methylpyridin-3-yl)-5-(2-((1-(3-methyl-1,2,4-oxxadiazol-5-yl)ethyl)amino)-2-oxoacetyl)-2,3-dihydro-1H-pyrrolizine-7-carboxamide] | 0.05 to 0.499 µM | 5 to 30 µM |
| Cc1noc([C@H](C)NC(=O)C(=O)c2c(Cl)c(C(=O)Nc3cnc(F)c(C)c3)c3n2CCC3)n1 [Example 736, (S)-6-chloro-N-(6-luoro-5-methylpyridin-3-yl)-5-(2-((1-(3-methyl-1,2,4-oxadiazol-5-yl)ethyl)amino)-2-oxoacetyl)-2,3-dihydro-1H-pyrrolizine-7-carboxamide] | < 0.05 µM | 5 to 30 µM |
| Cc1cc(NC(=O)c2c(C)c(C(=O)C(=O)N[C@]3(C)CC[C@H](O)CC3)n3c2CCCC3)ccc1F [Example 737, N-(4-fluoro-3-methylphenyl)-3-(2-(((1s,4s)-4-hydroxy-1-methylcyclohexyl)amino)-2-oxoacetyl)-2-methyl-5,6,7,8-tetrahydroindolizine-1-carboxamide] | < 0.05 µM | > 30 µM |
| Cc1c(C(=O)Nc2ccc(F)c(F)c2)c2n(c1C(=O)C(=O)Nc1ccc(B(O)O)cc1)CCCC2 [Example 738, (4-(2-(1-((3,4-difluorophenyl)carbamoyl)-2-methyl-5,6,7,8-tetrahdyroindolizin-3-yl)-2-oxoacetamido)phenyl)boronic acid] | 0.05 to 0.499 µM | > 30 µM |
| Cc1cc(NC(=O)c2c(C)c(C(=O)C(=O)Nc3cccnc3)n3c2CCCC3)ccc1F [Example 739, N-(4-fluoro-3-methylphenyl)-2-methyl-3-(2-oxo-2-(pyridin-3-ylamino)acetyl)-5,6,7,8-tetrahydroindolizine-1-carboxamide] | 0.05 to 0.499 µM | > 30 µM |
